Data taken from patent publication US20210161134A1, “HERBICIDE AND METHOD OF APPLYING A HERBICIDE” (priority 2015, published 2021).
Read-outs that look alike come from different tables or passages of the source.

How the values were obtained:
dandilions = test: Killing of dandelions by amino acid herbicide; type: in vivo, dandelion
hoary alssum = test: Killing of hoary alyssum by amino acid; type: in vivo
leafy spurge = test: Killing of leafy spurge by amino acids; type: in vivo
morning glories = test: Killing of morning glories by amino acid; type: in vivo
common yarroen = test: Killing of common yarrow by amino acid; type: in vivo
hounds tongue = test: Killing of hounds tongue by amino acid; type: in vivo
Rush Skeleton weed = test: Killing of rush skeleton weed by amino acid (FIG. 3); type: in vivo
wild rubarb = test: Killing of wild rhubarb by amino acid; type: in vivo
Field Bindweed = test: Killing of field bindweed by amino acid (FIG. 4); type: in vivo
Canada thistle = test: Killing of Canada thistle by amino acid herbicide (FIG. 1)
Spotted Knapweed = test: Killing of spotted knapweed by amino acids; type: in vivo

Row | Structure (SMILES) | kill of the weed (dandilions) | kill of the weed (hoary alssum) | kill of the weed (leafy spurge) | kill of the weed (morning glories) | kill of the weed (common yarroen) | kill of the weed (hounds tongue) | kill of the weed (Rush Skeleton weed) | kill of the weed (Rush Skeleton weed; listed as Lysine) | kill of the weed (wild rubarb) | kill of the weed (Field Bindweed) | kill of the weed (Canada thistle) | kill of the weed (Canada thistle; listed as lysine) | kill of the weed (Kudzu) | kill of the weed (Kudzu; listed as Methionine) | kill of the weed (Spotted Knapweed) | kill of the weed (poa anna) | kill of the weed (eurasian milfoil)
1 | NCCCC[C@H](N)C(=O)O [L-Lysine] | kill | kill | kill | kill | kill | kill | kill | killed | kill | killed | kill | kills the plant |  |  |  |  | 
2 | CSCC[C@H](N)C(=O)O [L-methionine] |  |  |  |  |  |  |  |  |  |  | kills the plant |  | kill | killed | kill | kill | kill
3 | CC(C)[C@H](N)C(=O)O [Valine] |  |  |  |  |  | killed |  |  |  |  |  |  |  |  |  |  | 
